Assay results reported in patent US7795244B2, “Penem prodrugs” (priority 2006, dated 2010).
Values after ≈ are worked out from the molar mass of the structure shown. Values joined by “and” are separate entries in the source; they are usually repeats but may differ in a detail not shown here. Identical values can stand only once.

Tests used:
[1] = Liver S9 conversion efficiency; assay type: in vitro ADME, human; settings: liver S9 experiments
[2] = Stability in the presence of porcine pancrelipase (PPE); assay type: in vitro ADME; settings: pig, porcine pancrelipase (ku-zyme HP) in phosphate buffer, 50 μM substrate, pH 7.4, 37° C.
[3] = tested on: porcine pancrelipase (PPE); test: as above; assay type: in vitro ADME
Equilibrium solubility = assay type: physicochemical; settings: aqueous buffer, thermodynamic from solid, 25 mM phosphate buffer (pH 5), ambient temperature / 25° C.
Experimental: Vials containing excess prodrug in phosphate buffer were rotated for up to 48 hours. After the equilibrium period, samples were pulled, filtered through 0.45 μm Gelman Acrodisc Nylon syringe filter and analyzed for drug concentration using HPLC. The HPLC conditions were: Column. C18, SymmetryShield RP, Waters, 4.6×150 mm, 3.5 micron; Mobile phase A: Acetonitrile; Mobile phase B: 0.1% TFA in water; Flow rate, 1 mL/min; Run Time: 30 min Inj. vol. 20 μL; Detection: 210 nm; Dissolving solvent: Acetonitrile/water (50:50 v:v).

H. influenzae BLNAR = test: Gerbil otitis media model; settings: Gerbil otitis media vs. H. influenzae BLNAR, oral TID for two days from 18 h post-infection, bacterial levels in middle ear fluid day four, repeat experiments
K. pneumoniae 6485 = test: Murine acute systemic infection model; settings: Murine acute systemic infection vs. K. pneumoniae 6485; oral BID; survival day four post-infection; repeat experiments
S. pneumoniae 1095 [4] = test: Murine acute systemic infection model; settings: Murine acute systemic infection vs. S. pneumoniae 1095; oral BID; survival day four post-infection; repeat experiments
S. pneumoniae 1095 [5] = test: Murine respiratory tract infection model; settings: Murine respiratory tract infection vs. S. pneumoniae 1095; oral BID for two days from 18 h post-infection; survival day ten; repeat experiments
[6] = Stability in human intestinal juice (HIJ); settings: pooled human intestinal juice (4 subjects), buffered, pH 7.4
[7] = tested on: Staphylococcus saprophyticus; test: MIC90 in vitro activity of sulopenem; assay type: cell-based
Alloiococcus otitidis = test: MIC90 in vitro activity of sulopenem; assay type: cell-based; settings: Alloiococcus otitis
[8] = tested on: Streptococcus pyogenes (Group A); test: MIC90 in vitro activity of sulopenem; assay type: cell-based
[9] = tested on: Streptococcus bovis (Group D); test: MIC90 in vitro activity of sulopenem; assay type: cell-based; settings: Streptococcus equinus
[10] = tested on: Viridans Streptococcus group; test: MIC90 in vitro activity of sulopenem; assay type: cell-based
[11] = tested on: Streptococcus pneumoniae penicillin-susceptible; test: MIC90 in vitro activity of sulopenem; assay type: cell-based
[12] = tested on: Streptococcus pneumoniae penicillin-intermediate; test: MIC90 in vitro activity of sulopenem; assay type: cell-based
[13] = tested on: Streptococcus pneumoniae penicillin-resistant; test: MIC90 in vitro activity of sulopenem; assay type: cell-based
[14] = tested on: Streptococcus pneumoniae levofloxacin-resistant; test: MIC90 in vitro activity of sulopenem; assay type: cell-based
Klebsiella oxytoca = test: MIC90 in vitro activity of sulopenem; assay type: cell-based
Experimental: (§1) The in vitro activity of sulopenem (the parent acid (5R,6S)-6-[(1R)-1-hydroxyethyl]-7-oxo-3-[[(1R3S)-tetrahydro-1-oxido-3thienyl]thio]4-thia-1-azabicyclo[3.2.0]hept-2-ene-2-carboxylic acid) was evaluated against pathogens involved in community and hospital infections, as summarized in Table 1. .

Klebsiella pneumoniae = test: MIC90 in vitro activity of sulopenem; assay type: cell-based
Experimental: as §1

Listeria monocytogenes = test: MIC90 in vitro activity of sulopenem; assay type: cell-based
Experimental: as §1

Prevotella spp = test: MIC90 in vitro activity of sulopenem; assay type: cell-based
Experimental: as §1

Salmonella/Shigella = test: MIC90 in vitro activity of sulopenem; assay type: cell-based
Experimental: as §1

[15] = tested on: Staphylococcus aureus oxacillin-S; test: MIC90 in vitro activity of sulopenem; assay type: cell-based
Experimental: as §1

[16] = tested on: Streptococcus agalactiae (Group B); test: MIC90 in vitro activity of sulopenem; assay type: cell-based
Experimental: as §1

[17] = tested on: Corynebacterium spp (not C. jeikeium); test: MIC90 in vitro activity of sulopenem; assay type: cell-based
Citrobacter diversus = test: MIC90 in vitro activity of sulopenem; assay type: cell-based; settings: Citrobacter koseri
Citrobacter freundii = test: MIC90 in vitro activity of sulopenem; assay type: cell-based
Enterobacter aerogenes = test: MIC90 in vitro activity of sulopenem; assay type: cell-based; settings: Klebsiella aerogenes
Enterobacter cloacae = test: MIC90 in vitro activity of sulopenem; assay type: cell-based
Escherichia coli = test: MIC90 in vitro activity of sulopenem; assay type: cell-based
[18] = tested on: Klebsiella pneumoniae ESBL+; test: MIC90 in vitro activity of sulopenem; assay type: cell-based
Morganella morganii = test: MIC90 in vitro activity of sulopenem; assay type: cell-based
Proteus mirabilis = test: MIC90 in vitro activity of sulopenem; assay type: cell-based
[19] = tested on: Haemophilus influenzae β-lactamase−; test: MIC90 in vitro activity of sulopenem; assay type: cell-based
[20] = tested on: Haemophilus influenzae β-lactamase+; test: MIC90 in vitro activity of sulopenem; assay type: cell-based
[21] = tested on: Moraxella catarrhalis β-lactamase−; test: MIC90 in vitro activity of sulopenem; assay type: cell-based
[22] = tested on: Moraxella catarrhelis β-lactamase+; test: MIC90 in vitro activity of sulopenem; assay type: cell-based
Legionella pneumophila = test: microbe, parasite or virus in culture; assay type: cell-based
Neisseria meningitides = test: MIC90 in vitro activity of sulopenem; assay type: cell-based
Becteroides fragilis = test: MIC90 in vitro activity of sulopenem; assay type: cell-based
Clostridium perfringens = test: microbe, parasite or virus in culture; assay type: cell-based
[23] = in vivo, po; cited from earlier work

CCC(CC)C(=O)OCOC(=O)C1=C(S[C@H]2CC[S@@+]([O-])C2)S[C@@H]2[C@@H]([C@@H](C)O)C(=O)N12 [Compound 1, (2-Ethyl-1-oxobutoxy)methyl (5R,6S)-6-[(1R)-1-hydroxyethyl]-7-oxo-3-[[(1R,3S)-tetrahydro-1-oxido-3-thienyl]thio]-4-thia-1-azabicyclo[3.2.0]hept-2-ene-2-carboxylate]
conversion to sulopenem (in words) [1]: fully converted to sulopenem | half-life at 50 µM ([2]; pH 7.4, ku-zyme Lot 1): 11.7 ± 3.8 min | half-life at 50 µM ([2]; pH 7.4, ku-zyme lot 2): 17.9 min | PPE half-life (in words) [3]: relatively long PPE half-life | solubility (Equilibrium solubility): 1210 µg/mL (≈ 2530 µM) | intrinsic clearance in human intestinal juice (in words): relatively low intrinsic clearance | HIJ Clint (avg) (human, pH 7.4): 0.07 mL/min | ED50 (H. influenzae BLNAR): 4.5 mg/kg | ED50 (H. influenzae BLNAR; Haemophilus influenzae, in Meriones unguiculatus, po): 8.7 mg/kg | PD50 (K. pneumoniae 6485): 88.6 mg/kg and 63.4 mg/kg | PD50 (S. pneumoniae 1095 [4]): 12.5 mg/kg and 6.3 mg/kg | PD50 (S. pneumoniae 1095 [5]): 16.4 mg/kg and 12.5 mg/kg and 9.5 mg/kg | Km [6]: 91 µM

C[C@@H](O)[C@H]1C(=O)N2C(C(=O)O)=C(S[C@H]3CC[S@@+]([O-])C3)S[C@H]12 [Sulopenem, (5R,6S)-6-[(1R)-1-hydroxyethyl]-7-oxo-3-[[(1R,3S)-tetrahydro-1-oxido-3-thienyl]thio]-4-thia-1-azabicyclo[3,2.0]hept-2-ene-2-carboxylic acid]
MIC90 [7]: 0.5 µg/mL (≈ 1.43 µM) | MIC90 (Alloiococcus otitidis): 1 µg/mL (≈ 2.86 µM) | MIC90 [8]: 0.03 µg/mL (≈ 0.0858 µM) | MIC90 [9]: 0.06 µg/mL (≈ 0.172 µM) | MIC90 [10]: 0.25 µg/mL (≈ 0.715 µM) | MIC90 [11]: 0.03 µg/mL (≈ 0.0858 µM) | MIC90 [12]: 0.25 µg/mL (≈ 0.715 µM) | MIC90 [13]: 1 µg/mL (≈ 2.86 µM) | MIC90 [14]: 0.5 µg/mL (≈ 1.43 µM) | MIC90 (Klebsiella oxytoca): 0.125 µg/mL (≈ 0.358 µM) | MIC90 (Klebsiella pneumoniae): 0.125 µg/mL (≈ 0.358 µM) | MIC90 (Listeria monocytogenes): 0.125 µg/mL (≈ 0.358 µM) | MIC90 (Prevotella spp): 0.125 µg/mL (≈ 0.358 µM) | MIC90 (Salmonella/Shigella): 0.125 µg/mL (≈ 0.358 µM) | MIC90 [15]: 0.125 µg/mL (≈ 0.358 µM) | MIC90 [16]: 0.125 µg/mL (≈ 0.358 µM) | MIC90 [17]: 2 µg/mL (≈ 5.72 µM) | MIC90 (Citrobacter diversus): 0.06 µg/mL (≈ 0.172 µM) | MIC90 (Citrobacter freundii): 0.25 µg/mL (≈ 0.715 µM) | MIC90 (Enterobacter aerogenes): 0.5 µg/mL (≈ 1.43 µM) | MIC90 (Enterobacter cloacae): 1 µg/mL (≈ 2.86 µM) | MIC90 (Escherichia coli): 0.06 µg/mL (≈ 0.172 µM) | MIC90 [18]: 0.25 µg/mL (≈ 0.715 µM) | MIC90 (Morganella morganii): 2 µg/mL (≈ 5.72 µM) | MIC90 (Proteus mirabilis): 0.5 µg/mL (≈ 1.43 µM) | MIC90 [19]: 0.25 µg/mL (≈ 0.715 µM) | MIC90 [20]: 0.5 µg/mL (≈ 1.43 µM) | MIC90 [21]: 0.03 µg/mL (≈ 0.0858 µM) | MIC90 [22]: 0.125 µg/mL (≈ 0.358 µM) | MIC90 (Legionella pneumophila): 0.06 µg/mL (≈ 0.172 µM) | MIC90 (Neisseria meningitides): 0.06 µg/mL (≈ 0.172 µM) | MIC90 (Becteroides fragilis): 0.5 µg/mL (≈ 1.43 µM) | MIC90 (Clostridium perfringens): 0.06 µg/mL (≈ 0.172 µM) | oral bioavailability (in words) [23]: not appreciably orally bioavailable
